Data: ChEMBL document CHEMBL4715724, “Novel 5-substituted-2-anilinoquinolines with 3-(morpholino or 4-methylpiperazin-1-yl)propoxy moiety as broad spectrum antiproliferative agents: Synthesis, cell based assays and kinase screening” (Bioorg Med Chem Lett, 2016)

Tests used:
[1] = target: Mitogen-activated protein kinase 1 (Homo sapiens) (UniProt P28482); experiment: Inhibition of recombinant full length N-terminal GST-tagged human MAPK1 expressed in Escherichia coli at 10 uM relative to control
[2] = target: Hepatocyte growth factor receptor (Homo sapiens) (UniProt P08581); experiment: Inhibition of recombinant N-terminal His6-tagged human MET (974 to end residues) expressed in baculovirus infected Sf21 insect cells at 10 uM relative to control
[3] = target: Receptor-type tyrosine-protein kinase FLT3 (Homo sapiens) (UniProt P36888); experiment: Inhibition of human FLT3 assessed as residual activity at 10 uM relative to control
[4] = Cytotoxicity against human HFF-1 cells assessed as cell growth inhibition by MTT assay; format: cell-based
[5] = target: Rho-associated protein kinase 1 (Homo sapiens) (UniProt Q13464); experiment: Inhibition of auto-activated recombinant N-terminal His6-tagged human ROCK1 (17 to 535 residues) expressed in baculovirus infected Sf21 insect cells at 10 uM incubated in presence of Mg/ATP relative to control
[6] = system: Panel leukemia (Carcinoma cell lines); experiment: cells; format: functional; conditions: Homo sapiens, time 48 hrs
Description: Growth inhibition of human Panel leukemia (Carcinoma cell lines) incubated for 48 hrs by sulforhodamine B assay

A549 = experiment: cells; format: functional; conditions: Homo sapiens, time 48 hrs
Description: Growth inhibition of human A549/ATCC cells incubated for 48 hrs by sulforhodamine B assay

UACC-62 = experiment: cells; format: functional; conditions: Homo sapiens, time 48 hrs
Description: Growth inhibition of human UACC-62 cells incubated for 48 hrs by sulforhodamine B assay

A498 = experiment: cells; format: functional; conditions: Homo sapiens, time 48 hrs
Description: Growth inhibition of human A498 cells incubated for 48 hrs by sulforhodamine B assay

[7] = system: Panel CNS (Carcinoma cell lines); experiment: cells; format: functional; conditions: Homo sapiens, time 48 hrs
Description: Growth inhibition of human Panel CNS (Carcinoma cell lines) incubated for 48 hrs by sulforhodamine B assay

NCI-H522 = experiment: cells; format: functional; conditions: Homo sapiens, time 48 hrs
Description: Growth inhibition of human NCI-H522 cells incubated for 48 hrs by sulforhodamine B assay

SR = experiment: cells; format: functional; conditions: Homo sapiens, time 48 hrs
Description: Growth inhibition of human SR cells incubated for 48 hrs by sulforhodamine B assay

[8] = target: High affinity nerve growth factor receptor (Homo sapiens, UniProt P04629); experiment: Inhibition of recombinant N-terminal His6-tagged human TrkA (440 to end residues) expressed in baculovirus infected Sf21 insect cells
[9] = target: Serine/threonine-protein kinase Sgk1 (Homo sapiens) (UniProt O00141); experiment: Inhibition of human SGK1 at 10 uM relative to control; conditions: Sf21
[10] = target: RAF proto-oncogene serine/threonine-protein kinase (Homo sapiens) (UniProt P04049); experiment: Inhibition of recombinant N-terminal GST-tagged human CRAF (306 to 648 residues) expressed in Sf9 cells assessed as residual activity at 10 uM relative to control
Sequence of RAF proto-oncogene serine/threonine-protein kinase (Homo sapiens) (P04049 whole entry, the tested form may be a part): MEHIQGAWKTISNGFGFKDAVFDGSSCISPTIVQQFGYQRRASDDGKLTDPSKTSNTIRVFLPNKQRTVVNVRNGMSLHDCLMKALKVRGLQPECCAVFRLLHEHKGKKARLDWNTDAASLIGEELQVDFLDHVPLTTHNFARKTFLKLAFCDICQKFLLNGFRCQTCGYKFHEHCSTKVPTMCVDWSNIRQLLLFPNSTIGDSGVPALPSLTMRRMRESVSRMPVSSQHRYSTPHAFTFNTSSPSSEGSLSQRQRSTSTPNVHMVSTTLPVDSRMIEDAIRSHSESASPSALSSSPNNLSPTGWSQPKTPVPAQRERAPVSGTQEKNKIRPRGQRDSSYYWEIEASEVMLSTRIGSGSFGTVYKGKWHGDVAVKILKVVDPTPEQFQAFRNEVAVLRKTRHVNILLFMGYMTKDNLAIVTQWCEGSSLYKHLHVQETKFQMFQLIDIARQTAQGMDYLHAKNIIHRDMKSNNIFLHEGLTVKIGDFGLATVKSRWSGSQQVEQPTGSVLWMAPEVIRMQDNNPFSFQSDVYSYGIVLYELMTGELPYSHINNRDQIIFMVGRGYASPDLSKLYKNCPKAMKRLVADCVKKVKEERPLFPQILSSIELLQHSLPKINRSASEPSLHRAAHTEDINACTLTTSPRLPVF

SNB-75 = experiment: cells; format: functional; conditions: Homo sapiens, time 48 hrs
Description: Growth inhibition of human SNB-75 cells incubated for 48 hrs by sulforhodamine B assay

[11] = target: Vascular endothelial growth factor receptor 3 (Homo sapiens) (UniProt P35916); experiment: Inhibition of N-terminal GST-tagged human FLT4 (800 to end residues) expressed in baculovirus infected Sf21 cells assessed as residual activity at 10 uM relative to control
[12] = target: Angiopoietin-1 receptor (Homo sapiens) (UniProt Q02763); experiment: Inhibition of recombinant N-terminal His6-tagged human Tie2 (771 to end residues) expressed in baculovirus infected Sf21 insect cells at 10 uM relative to control
Sequence of Angiopoietin-1 receptor (Homo sapiens) (Q02763 whole entry): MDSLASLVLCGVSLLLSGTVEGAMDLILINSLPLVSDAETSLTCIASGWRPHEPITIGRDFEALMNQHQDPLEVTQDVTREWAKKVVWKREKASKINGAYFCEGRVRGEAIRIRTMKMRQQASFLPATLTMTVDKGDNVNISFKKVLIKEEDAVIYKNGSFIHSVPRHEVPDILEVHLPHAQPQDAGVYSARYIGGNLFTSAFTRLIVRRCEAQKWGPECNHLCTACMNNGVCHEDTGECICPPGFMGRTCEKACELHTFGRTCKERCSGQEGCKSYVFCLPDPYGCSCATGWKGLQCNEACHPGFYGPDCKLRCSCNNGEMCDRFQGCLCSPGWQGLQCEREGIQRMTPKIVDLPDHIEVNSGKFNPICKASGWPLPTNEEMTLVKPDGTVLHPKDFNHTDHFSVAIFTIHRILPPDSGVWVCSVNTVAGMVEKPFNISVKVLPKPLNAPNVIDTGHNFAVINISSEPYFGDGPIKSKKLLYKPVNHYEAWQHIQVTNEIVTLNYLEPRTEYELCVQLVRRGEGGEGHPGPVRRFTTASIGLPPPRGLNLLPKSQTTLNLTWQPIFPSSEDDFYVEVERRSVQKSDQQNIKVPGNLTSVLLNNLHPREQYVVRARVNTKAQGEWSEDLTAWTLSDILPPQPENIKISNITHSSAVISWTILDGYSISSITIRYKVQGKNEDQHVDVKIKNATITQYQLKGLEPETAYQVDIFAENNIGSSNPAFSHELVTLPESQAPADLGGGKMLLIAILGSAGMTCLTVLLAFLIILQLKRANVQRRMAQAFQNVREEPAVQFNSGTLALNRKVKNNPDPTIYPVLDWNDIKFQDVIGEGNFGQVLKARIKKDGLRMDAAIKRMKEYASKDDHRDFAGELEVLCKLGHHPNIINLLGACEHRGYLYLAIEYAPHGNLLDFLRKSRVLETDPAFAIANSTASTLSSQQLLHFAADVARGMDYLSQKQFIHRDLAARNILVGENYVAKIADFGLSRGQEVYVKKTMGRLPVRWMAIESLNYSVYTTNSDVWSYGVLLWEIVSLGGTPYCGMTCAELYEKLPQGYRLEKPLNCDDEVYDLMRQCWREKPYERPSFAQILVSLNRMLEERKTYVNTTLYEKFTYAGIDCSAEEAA

NCI-H23 = experiment: cells; format: functional; conditions: Homo sapiens, time 48 hrs
Description: Growth inhibition of human NCI-H23 cells incubated for 48 hrs by sulforhodamine B assay

IGROV-1 = experiment: cells; format: functional; conditions: Homo sapiens, time 48 hrs
Description: Growth inhibition of human IGROV-1 cells incubated for 48 hrs by sulforhodamine B assay

LOX IMVI = experiment: cells; format: functional; conditions: Homo sapiens, time 48 hrs
Description: Growth inhibition of human LOX IMVI cells incubated for 48 hrs by sulforhodamine B assay

[13] = target: Tyrosine-protein kinase SYK (Homo sapiens) (UniProt P43405); experiment: Inhibition of recombinant full length N-terminal His6-tagged human SYK expressed in baculovirus infected Sf21 insect cells at 10 uM relative to control
[14] = system: Panel renal (Carcinoma cell lines); experiment: cells; format: functional; conditions: Homo sapiens, time 48 hrs
Description: Growth inhibition of human Panel renal (Carcinoma cell lines) incubated for 48 hrs by sulforhodamine B assay

[15] = target: Ephrin type-B receptor 4 (Homo sapiens) (UniProt P54760); experiment: Inhibition of human EphB4 at 10 uM relative to control
HOP-92 = experiment: cells; format: functional; conditions: Homo sapiens, time 48 hrs
Description: Growth inhibition of human HOP-92 cells incubated for 48 hrs by sulforhodamine B assay

[16] = system: Panel prostate (Carcinoma cell lines); experiment: cells; format: functional; conditions: Homo sapiens, time 48 hrs
Description: Growth inhibition of human Panel prostate (Carcinoma cell lines) incubated for 48 hrs by sulforhodamine B assay

HT-29 = experiment: cells; format: functional; conditions: Homo sapiens, time 48 hrs
Description: Growth inhibition of human HT-29 cells incubated for 48 hrs by sulforhodamine B assay

MDA-MB-468 = experiment: cells; format: functional; conditions: Homo sapiens, time 48 hrs
Description: Growth inhibition of human MDA-MB-468 cells incubated for 48 hrs by sulforhodamine B assay

[17] = system: Panel ovarian (Carcinoma cell lines); experiment: cells; format: functional; conditions: Homo sapiens, time 48 hrs
Description: Growth inhibition of human Panel ovarian (Carcinoma cell lines) incubated for 48 hrs by sulforhodamine B assay

[18] = target: Serine/threonine-protein kinase B-raf (Homo sapiens) (UniProt P15056); experiment: Inhibition of recombinant N-terminal GST-tagged human BRAF (417 to 766 residues) expressed in Sf9 cells assessed as residual activity at 10 uM relative to control
[19] = system: Panel breast (Carcinoma cell lines); experiment: cells; format: functional; conditions: Homo sapiens, time 48 hrs
Description: Growth inhibition of human Panel breast (Carcinoma cell lines) incubated for 48 hrs by sulforhodamine B assay

TK-10 = experiment: cells; format: functional; conditions: Homo sapiens, time 48 hrs
Description: Growth inhibition of human TK-10 cells incubated for 48 hrs by sulforhodamine B assay

cells = format: functional; conditions: Homo sapiens, Non-small cell lung cancer cell line; time 48 hrs
Description: Growth inhibition of human Non-small cell lung cancer cell line incubated for 48 hrs by sulforhodamine B assay

[20] = target: Mitogen-activated protein kinase 8 (Homo sapiens) (UniProt P45983); experiment: Inhibition of N-terminal His-tagged recombinant full length human JNK1alpha1 expressed in Sf21 cells at 10 uM relative to control
Sequence of Mitogen-activated protein kinase 8 (Homo sapiens) (P45983 whole entry): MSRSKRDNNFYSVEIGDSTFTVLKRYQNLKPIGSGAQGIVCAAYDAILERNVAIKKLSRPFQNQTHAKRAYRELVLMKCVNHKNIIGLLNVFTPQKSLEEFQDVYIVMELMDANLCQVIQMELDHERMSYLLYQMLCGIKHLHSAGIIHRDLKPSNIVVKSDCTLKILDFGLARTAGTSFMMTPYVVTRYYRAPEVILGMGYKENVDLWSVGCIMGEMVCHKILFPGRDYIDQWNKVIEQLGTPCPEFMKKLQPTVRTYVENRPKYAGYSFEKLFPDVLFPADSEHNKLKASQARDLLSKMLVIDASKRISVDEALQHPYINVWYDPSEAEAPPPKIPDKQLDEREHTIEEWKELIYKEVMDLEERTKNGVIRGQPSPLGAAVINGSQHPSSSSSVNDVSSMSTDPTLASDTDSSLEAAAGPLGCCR

U-251 = experiment: cells; format: functional; conditions: Homo sapiens, time 48 hrs
Description: Growth inhibition of human U-251 cells incubated for 48 hrs by sulforhodamine B assay

[21] = target: Fibroblast growth factor receptor 2 (Homo sapiens) (UniProt P21802); experiment: Inhibition of N-terminal His6-tagged human FGFR2 (456 to 770 residues) expressed in baculovirus-infected Sf21 cells assessed as residual activity at 10 uM relative to control
Sequence of Fibroblast growth factor receptor 2 (Homo sapiens) (P21802 22-821 limits assumed): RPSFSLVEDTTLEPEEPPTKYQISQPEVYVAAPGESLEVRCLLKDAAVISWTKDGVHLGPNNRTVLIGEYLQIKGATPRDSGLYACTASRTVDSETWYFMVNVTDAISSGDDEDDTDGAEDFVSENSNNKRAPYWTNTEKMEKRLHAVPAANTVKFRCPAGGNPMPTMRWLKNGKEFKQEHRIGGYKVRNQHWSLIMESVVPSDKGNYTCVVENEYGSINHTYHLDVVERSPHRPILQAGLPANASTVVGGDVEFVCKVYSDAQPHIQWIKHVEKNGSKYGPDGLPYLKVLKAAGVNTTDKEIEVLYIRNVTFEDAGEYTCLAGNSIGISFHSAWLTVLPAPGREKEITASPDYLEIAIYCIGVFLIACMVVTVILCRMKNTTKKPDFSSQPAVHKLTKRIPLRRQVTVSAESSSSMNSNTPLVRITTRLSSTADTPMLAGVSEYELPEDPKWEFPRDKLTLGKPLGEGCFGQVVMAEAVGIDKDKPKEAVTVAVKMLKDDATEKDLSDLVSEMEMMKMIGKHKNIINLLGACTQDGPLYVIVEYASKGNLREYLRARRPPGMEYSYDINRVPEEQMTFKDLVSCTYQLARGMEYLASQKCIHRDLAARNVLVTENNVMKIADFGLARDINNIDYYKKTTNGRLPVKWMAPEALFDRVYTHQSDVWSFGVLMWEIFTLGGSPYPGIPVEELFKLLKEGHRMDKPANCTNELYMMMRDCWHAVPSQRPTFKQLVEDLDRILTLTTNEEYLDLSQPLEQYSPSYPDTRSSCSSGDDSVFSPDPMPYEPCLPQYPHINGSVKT

OVCAR-3 = experiment: cells; format: functional; conditions: Homo sapiens, time 48 hrs
Description: Growth inhibition of human OVCAR-3 cells incubated for 48 hrs by sulforhodamine B assay

[22] = Cytotoxicity against human HFF-1 cells assessed as cell growth inhibition at 10 uM by MTT assay relative to control; format: cell-based; conditions: read-out: GI
NCI-H322M = experiment: cells; format: functional; conditions: Homo sapiens, time 48 hrs
Description: Growth inhibition of human NCI-H322M cells incubated for 48 hrs by sulforhodamine B assay

[23] = target: Cytoplasmic tyrosine-protein kinase BMX (Homo sapiens) (UniProt P51813); experiment: Inhibition of N-terminal full length His6-tagged human recombinant BMX expressed in Sf21 cells assessed as residual activity at 10 uM relative to control
Sequence of Cytoplasmic tyrosine-protein kinase BMX (Homo sapiens) (P51813 whole entry): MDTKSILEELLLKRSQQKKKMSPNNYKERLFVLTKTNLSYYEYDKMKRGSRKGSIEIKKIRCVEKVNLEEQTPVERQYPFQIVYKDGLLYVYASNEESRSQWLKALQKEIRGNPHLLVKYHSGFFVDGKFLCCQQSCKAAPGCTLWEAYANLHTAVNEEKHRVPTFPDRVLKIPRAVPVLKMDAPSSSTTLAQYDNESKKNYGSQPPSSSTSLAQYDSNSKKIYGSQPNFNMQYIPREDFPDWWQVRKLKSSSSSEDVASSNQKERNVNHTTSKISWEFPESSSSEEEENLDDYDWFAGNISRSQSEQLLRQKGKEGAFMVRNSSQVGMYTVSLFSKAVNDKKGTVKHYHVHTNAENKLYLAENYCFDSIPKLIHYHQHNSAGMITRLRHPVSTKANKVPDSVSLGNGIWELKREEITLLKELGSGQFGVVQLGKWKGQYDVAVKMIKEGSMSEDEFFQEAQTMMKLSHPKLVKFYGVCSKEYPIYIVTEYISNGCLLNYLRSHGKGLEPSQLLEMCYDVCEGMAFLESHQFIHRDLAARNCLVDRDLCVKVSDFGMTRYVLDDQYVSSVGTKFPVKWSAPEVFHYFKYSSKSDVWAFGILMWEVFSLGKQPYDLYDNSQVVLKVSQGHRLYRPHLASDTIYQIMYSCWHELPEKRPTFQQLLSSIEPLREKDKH

[24] = target: Platelet-derived growth factor receptor beta (Homo sapiens) (UniProt P09619); experiment: Inhibition of recombinant N-terminal His6-tagged human PDGFRbeta (557 to end residues) expressed in baculovirus infected Sf21 insect cells at 10 uM relative to control
Sequence of Platelet-derived growth factor receptor beta (Homo sapiens) (P09619 whole entry): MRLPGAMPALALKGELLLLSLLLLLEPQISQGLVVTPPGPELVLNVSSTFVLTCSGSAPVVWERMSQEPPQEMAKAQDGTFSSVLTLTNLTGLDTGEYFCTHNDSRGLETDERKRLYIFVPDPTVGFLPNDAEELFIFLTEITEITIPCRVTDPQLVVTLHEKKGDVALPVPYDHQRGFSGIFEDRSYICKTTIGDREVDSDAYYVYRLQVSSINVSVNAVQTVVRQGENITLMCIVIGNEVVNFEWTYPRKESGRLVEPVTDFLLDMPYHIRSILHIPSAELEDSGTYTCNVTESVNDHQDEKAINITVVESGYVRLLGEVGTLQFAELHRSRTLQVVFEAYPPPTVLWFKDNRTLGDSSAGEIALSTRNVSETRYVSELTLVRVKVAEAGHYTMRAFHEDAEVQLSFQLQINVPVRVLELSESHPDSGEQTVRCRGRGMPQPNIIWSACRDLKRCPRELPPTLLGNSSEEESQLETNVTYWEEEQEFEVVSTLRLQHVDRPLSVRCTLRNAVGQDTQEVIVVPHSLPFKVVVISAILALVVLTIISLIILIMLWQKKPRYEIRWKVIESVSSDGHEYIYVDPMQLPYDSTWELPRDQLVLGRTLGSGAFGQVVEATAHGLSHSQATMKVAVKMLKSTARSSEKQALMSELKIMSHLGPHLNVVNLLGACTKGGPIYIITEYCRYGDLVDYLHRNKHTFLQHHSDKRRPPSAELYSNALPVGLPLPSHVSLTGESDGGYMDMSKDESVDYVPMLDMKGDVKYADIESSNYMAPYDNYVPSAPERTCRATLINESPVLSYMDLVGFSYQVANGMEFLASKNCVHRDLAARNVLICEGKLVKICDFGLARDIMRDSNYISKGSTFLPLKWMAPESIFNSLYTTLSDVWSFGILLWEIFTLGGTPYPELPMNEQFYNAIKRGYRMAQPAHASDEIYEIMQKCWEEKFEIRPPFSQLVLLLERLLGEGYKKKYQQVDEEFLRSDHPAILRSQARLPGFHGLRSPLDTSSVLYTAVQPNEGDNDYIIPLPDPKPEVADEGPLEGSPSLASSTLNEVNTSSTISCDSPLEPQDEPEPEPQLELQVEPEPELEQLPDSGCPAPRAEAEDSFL

[25] = Cytotoxicity against human HFF-1 cells assessed as cell growth inhibition at 0.1 uM by MTT assay relative to control; format: cell-based; conditions: read-out: GI
[26] = read-out: LC50 (the source's name)

CN1CCN(CCCOc2cccc3nc(Nc4ccc(Cl)c(C(F)(F)F)c4)ccc23)CC1
inhibition [1]: < 60%
inhibition [2]: < 60%
Activity [3]: 66%
GI50 [4]: > 10 µM
inhibition [5]: < 60%
GI50 [6]: 1.38 µM
LC50 (50% lethal concentration) [6]: 7.78 µM
TGI [6]: 3.48 µM
GI50 (A549): 1.72 µM
GI50 (UACC-62): 1.72 µM
GI50 (A498): 1.68 µM
GI50 [7]: 1.65 µM
TGI [7]: 3.67 µM
CC50 [7, 26]: 6.98 µM
GI50 (NCI-H522): 1.83 µM
GI50 (SR): 0.54 µM
IC50 [8]: 2.52 µM
inhibition [9]: < 60%
Activity [10]: < 60%
GI50 (SNB-75): 1.52 µM
Activity [11]: < 60%
inhibition [12]: < 60%
GI50 (NCI-H23): 1.78 µM
GI50 (IGROV-1): 1.85 µM
GI50 (LOX IMVI): 1.56 µM
inhibition [13]: < 60%
GI50 [14]: 1.62 µM
LC50 (lethal concentration 50%) [14]: 6.46 µM
TGI [14]: 3.23 µM
inhibition [15]: < 60%
GI50 (HOP-92): 1.02 µM
GI50 [16]: 1.69 µM
LC50 (concentration killing 50% of cells) [16]: 5.88 µM
TGI [16]: 3.15 µM
GI50 (HT-29): 1.12 µM
GI50 (MDA-MB-468): 1.6 µM
GI50 [17]: 1.98 µM
LC50 [17]: 10.3 µM
TGI [17]: 4.18 µM
Activity [18]: < 60%
GI50 [19]: 1.69 µM
TGI [19]: 3.63 µM
CC50 [19, 26]: 11.2 µM
GI50 (TK-10): 1.8 µM
GI50 (cells): 1.68 µM
LC50 (50% lethal concentration) (cells): 10.1 µM
TGI (cells): 3.66 µM
inhibition [20]: < 60%
GI50 (U-251): 1.49 µM
Activity [21]: < 60%
GI50 (OVCAR-3): 1.81 µM
inhibition at 10 µM [22]: 37.1%
GI50 (NCI-H322M): 1.44 µM
Activity [23]: < 60%
inhibition [24]: < 60%
inhibition at 0.1 µM [25]: 6.07%
